Legend:
Format in all cases: biochemical
Settings in all cases: FAM-cAMP substrate, 30 minutes at room temperature
PDE4A1A = target: T1, PDE4A1A (Homo sapiens, UniProt P27815); experiment: PDE4 activity inhibition assay, PDE4A1A
T1 construct: purchased BPS 60040
Method: (§1) The IC50 value of the inhibitory effect of the compound on PDE4A1A, PDE4B1 and PDE4D3 was tested.
(§2) Positive compound: Trequinsin (Sigma, Cat. No. T2057).
(§3) Equipment: Wallac Victor Multi-label counter (Perkin Elmer).
(§4) I. Preparing 1× reaction liquid and termination liquid;
(§5) II. PDE enzymatic reaction; • 1) The PDE was dissolved in 1× reaction solution to form 2× enzyme solution. • 2) FAM-cAMP was dissolved in 1× reaction solution to form 2× substrate solution. • 3) Echo 550 was used to transfer the corresponding volume of the compound in DMSO solution to the reaction plate. • 4) 2× enzyme solution was added into the corresponding well of the reaction plate and incubated with the compound solution at room temperature for 15 minutes. • 5) 2× substrate solution was added into the corresponding well of the reaction plate to initiate the reaction. • 6) Reaction plate was incubated at room temperature for 30 minutes and terminated by adding termination liquid, then incubated at room temperature for 60 minutes.
(§6) The inhibition rate was calculated by Excel; IC50 was calculated by GraphPad Prism.

PDE4B1 = target: T2, PDE4B1 (Homo sapiens, UniProt Q07343); experiment: PDE4 activity inhibition assay, PDE4B1
T2 construct: purchased BPS 60041
Method: as §1, §2, §3, §4, §5, §6

PDE4D3 = target: T3, PDE4D3 (Homo sapiens, UniProt Q08499); experiment: PDE4 activity inhibition assay, PDE4D3
T3 construct: purchased BPS 60046
Method: as §1, §2, §3, §4, §5, §6

T3 sequence (Q08499 1-673 isoform Q08499-2): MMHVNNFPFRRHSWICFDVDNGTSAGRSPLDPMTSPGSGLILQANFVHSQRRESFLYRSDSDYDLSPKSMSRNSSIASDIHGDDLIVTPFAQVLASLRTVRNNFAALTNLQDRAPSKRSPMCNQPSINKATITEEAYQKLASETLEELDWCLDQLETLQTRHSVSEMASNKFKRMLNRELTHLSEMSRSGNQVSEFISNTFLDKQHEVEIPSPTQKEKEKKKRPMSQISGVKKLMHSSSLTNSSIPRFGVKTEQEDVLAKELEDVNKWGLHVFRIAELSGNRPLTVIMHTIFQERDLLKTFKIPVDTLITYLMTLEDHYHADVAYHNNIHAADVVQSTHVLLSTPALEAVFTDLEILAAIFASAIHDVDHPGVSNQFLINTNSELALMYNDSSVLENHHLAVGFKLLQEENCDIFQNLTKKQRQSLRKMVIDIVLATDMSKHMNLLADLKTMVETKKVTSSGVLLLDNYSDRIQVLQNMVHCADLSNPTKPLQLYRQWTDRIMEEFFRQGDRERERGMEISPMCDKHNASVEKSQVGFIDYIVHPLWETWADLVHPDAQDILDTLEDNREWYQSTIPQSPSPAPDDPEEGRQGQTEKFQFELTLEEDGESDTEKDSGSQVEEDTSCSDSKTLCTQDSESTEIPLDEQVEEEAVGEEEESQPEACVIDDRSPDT
T2 sequence (Q07343 whole entry): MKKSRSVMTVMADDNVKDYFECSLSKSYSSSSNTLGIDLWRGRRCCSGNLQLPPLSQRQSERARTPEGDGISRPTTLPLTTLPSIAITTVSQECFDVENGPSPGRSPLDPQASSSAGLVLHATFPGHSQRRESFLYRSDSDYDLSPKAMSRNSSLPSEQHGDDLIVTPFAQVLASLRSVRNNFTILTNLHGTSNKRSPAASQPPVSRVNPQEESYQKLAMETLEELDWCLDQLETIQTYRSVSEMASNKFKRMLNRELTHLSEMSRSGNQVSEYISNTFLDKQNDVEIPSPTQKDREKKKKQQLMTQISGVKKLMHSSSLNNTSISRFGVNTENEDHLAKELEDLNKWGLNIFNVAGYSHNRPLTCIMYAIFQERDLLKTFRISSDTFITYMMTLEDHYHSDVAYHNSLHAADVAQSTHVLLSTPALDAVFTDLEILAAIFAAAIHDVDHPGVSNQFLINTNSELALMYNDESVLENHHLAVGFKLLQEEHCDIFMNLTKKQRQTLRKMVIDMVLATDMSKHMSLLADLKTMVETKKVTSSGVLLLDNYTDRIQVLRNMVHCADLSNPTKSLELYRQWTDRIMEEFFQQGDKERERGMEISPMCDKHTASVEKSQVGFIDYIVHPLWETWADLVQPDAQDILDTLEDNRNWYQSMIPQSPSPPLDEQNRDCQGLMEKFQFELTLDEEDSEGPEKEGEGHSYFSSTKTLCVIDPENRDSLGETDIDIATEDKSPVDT
T1 sequence (P27815 1-647 isoform P27815-4): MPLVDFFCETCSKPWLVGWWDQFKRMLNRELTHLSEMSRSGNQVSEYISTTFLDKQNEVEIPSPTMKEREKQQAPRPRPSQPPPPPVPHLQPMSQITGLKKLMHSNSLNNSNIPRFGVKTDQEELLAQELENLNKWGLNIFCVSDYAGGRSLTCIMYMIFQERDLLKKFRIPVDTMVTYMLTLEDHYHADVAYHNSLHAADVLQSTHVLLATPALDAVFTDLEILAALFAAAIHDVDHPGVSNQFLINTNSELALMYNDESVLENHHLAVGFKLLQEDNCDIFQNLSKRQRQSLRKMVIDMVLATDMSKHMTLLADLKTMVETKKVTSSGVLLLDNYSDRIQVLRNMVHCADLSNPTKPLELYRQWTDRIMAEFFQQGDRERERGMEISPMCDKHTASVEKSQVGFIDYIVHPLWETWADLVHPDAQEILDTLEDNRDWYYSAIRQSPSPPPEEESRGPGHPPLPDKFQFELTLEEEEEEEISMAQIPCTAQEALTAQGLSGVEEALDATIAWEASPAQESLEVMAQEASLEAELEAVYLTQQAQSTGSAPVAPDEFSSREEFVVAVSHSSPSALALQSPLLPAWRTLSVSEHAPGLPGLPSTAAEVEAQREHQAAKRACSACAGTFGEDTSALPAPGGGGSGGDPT

Row | Compound | IC50 (PDE4A1A) [nM] | IC50 (PDE4B1) [nM] | IC50 (PDE4D3) [nM]
1 | CCOc1cc(C(CS(C)(=O)=O)N2C(=O)c3c(F)ccc(NC(C)=O)c3C2=O)ccc1OC (stereo not drawn) [Compound 101, N-(2-(1-(3-ethoxy-4-methoxyphenyl)-2-(methylsulfonyl)ethyl)-7-fluoro-1,3-dioxoisoindolin-4-yl)acetamide] | 17 | 27 | 12
2 | CCOc1cc([C@@H](CS(C)(=O)=O)N2C(=O)c3c(F)ccc(NC(C)=O)c3C2=O)ccc1OC [Compound 102, (S)—N-(2-(1-(3-ethoxy-4-methoxyphenyl)-2-(methylsulfonyl)ethyl)-7-fluoro-1,3-dioxoisoindolin-4-yl)acetamide] | 11 | 14 | 7.4
3 | [2H]C([2H])([2H])Oc1ccc([C@H](CS(C)(=O)=O)N2C(=O)c3c(F)ccc(NC(C)=O)c3C2=O)cc1OCC [Compound 104, (R)—N-(2-(1-(3-ethoxy-4-d3-methoxyphenyl)-2-(methylsulfonyl)ethyl)-7-fluoro-1,3-dioxoisoindolin-4-yl)acetamide] | 53 | 70 | 31
4 | [2H]C([2H])([2H])Oc1ccc([C@@H](CS(C)(=O)=O)N2C(=O)c3c(F)ccc(NC(C)=O)c3C2=O)cc1OC([2H])([2H])[2H] [Compound 105, (S)—N-(2-(1-(3,4-d6-dimethoxyphenyl)-2-(methylsulfonyl)ethyl)-7-fluoro-1,3-dioxoisoindolin-4-yl)acetamide] | 61 | 97 | 41
5 | [2H]C([2H])([2H])Oc1ccc([C@H](CS(C)(=O)=O)N2C(=O)c3c(F)ccc(NC(C)=O)c3C2=O)cc1OC([2H])([2H])[2H] [Compound 106, (R)—N-(2-(1-(3,4-d6-dimethoxyphenyl)-2-(methylsulfonyl)ethyl)-7-fluoro-1,3-dioxoisoindolin-4-yl)acetamide] | 340 | 493 | 300
6 | [2H]C([2H])([2H])Oc1ccc([C@@H](CS(C)(=O)=O)N2C(=O)c3c(F)ccc(NC(C)=O)c3C2=O)cc1OC([2H])([2H])C([2H])([2H])[2H] [Compound 107, (S)—N-(2-(1-(3-d5-ethoxy-4-d3-methoxyphenyl)-2-(methylsulfonyl)ethyl)-7-fluoro-1,3-dioxoisoindolin-4-yl)acetamide] | 8.3 | 12 | 4.6
7 | CCOc1cc([C@@H](CS(C)(=O)=O)N2C(=O)c3c(Cl)ccc(NC(C)=O)c3C2=O)ccc1OC [Compound 111, (S)—N-(7-chloro-2-(1-(3-ethoxy-4-methoxyphenyl)-2-(methylsulfonyl)ethyl)-1,3-dioxoisoindolin-4-yl)acetamide] | 1.3 | 4.3 | 1.9
8 | [2H]C([2H])([2H])Oc1ccc([C@@H](CS(C)(=O)=O)N2C(=O)c3c(Cl)ccc(NC(C)=O)c3C2=O)cc1OCC [Compound 113, (S)—N-(7-chloro-2-(1-(3-ethoxy-4-d3-methoxyphenyl)-2-(methylsulfonyl)ethyl)-1,3-dioxoisoindolin-4-yl)acetamide] | 2.1 | 5.1 | 1.3
9 | CCOc1cc([C@@H](CS(C)(=O)=O)N2C(=O)c3c(C#N)ccc(NC(C)=O)c3C2=O)ccc1OC [Compound 115, (S)—N-(7-cyano-2-(l 1-(3-ethoxy-4-methoxyphenyl)-2-(methylsulfonyl)ethyl)-1,3-dioxoisoindolin-4-yl)acetamide] | 6 | 17.3 | 5.7
10 | [2H]C([2H])([2H])Oc1ccc([C@@H](CS(C)(=O)=O)N2C(=O)c3c(F)ccc(NC(=O)C4CC4)c3C2=O)cc1OCC [Compound 118, (S)—N-(2-(1-(3-ethoxy-4-d3-methoxyphenyl)-2-(methylsulfonyl)ethyl)-7-fluoro-1,3-dioxoisoindolin-4-yl)cyclopropanecarboxamide] | 5.1 | 8.7 | 2.5
11 | [2H]C([2H])([2H])Oc1ccc([C@@H](CS(C)(=O)=O)N2C(=O)c3cccc(NC(=O)C4CC4)c3C2=O)cc1OCC [Compound 120, (S)—N-(2-(1-(3-ethoxy-4-d3-methoxyphenyl)-2-(methylsulfonyl)ethyl)-1,3-dioxoisoindolin-4-yl)cyclopropanecarboxamide] | 7.6 | 11 | 4.9
12 | CCOc1cc(C(CS(C)(=O)=O)N2C(=O)c3c(F)ccc(NC(C)=O)c3C2=O)ccc1OC(F)F (stereo not drawn) [Compound 121, N-(2-(1-(4-(difluoromethoxy)-3-ethoxyphenyl)-2-(methylsulfonyl)ethyl)-7-fluoro-1,3-dioxoisoindolin-4-yl)acetamide] | 3.4 | 7 | 0.9
13 | CCOc1cc(C(CS(C)(=O)=O)N2C(=O)c3cc(F)cc(NC(C)=O)c3C2=O)ccc1OC (stereo not drawn) [Compound 201, N-(2-(1-(3-ethoxy-4-methoxyphenyl)-2-(methylsulfonyl)ethyl)-6-fluoro-1,3-dioxoisoindolin-4-yl)acetamide] | 39 | 41 | 25
14 | CCOc1cc([C@@H](CS(C)(=O)=O)N2C(=O)c3cc(F)cc(NC(C)=O)c3C2=O)ccc1OC [Compound 202, (S)—N-(2-(1-(3-ethoxy-4-methoxyphenyl)-2-(methylsulfonyl)ethyl)-6-fluoro-1,3-dioxoisoindolin-4-yl)acetamide] | 11 | 11 | 5.4
15 | [2H]C([2H])([2H])Oc1ccc([C@H](CS(C)(=O)=O)N2C(=O)c3cc(F)cc(NC(C)=O)c3C2=O)cc1OCC [Compound 204, (R)—N-(2-(1-(3-ethoxy-4-d3-methoxyphenyl)-2-(methylsulfonyl)ethyl)-6-fluoro-1,3-dioxoisoindolin-4-yl)acetamide] | 133 | 157 | 83
16 | [2H]C([2H])([2H])Oc1ccc([C@@H](CS(C)(=O)=O)N2C(=O)c3cc(F)cc(NC(C)=O)c3C2=O)cc1OC([2H])([2H])[2H] [Compound 205, (S)—N-(2-(1-(3,4-d6-dimethoxyphenyl)-2-(methylsulfonyl)ethyl)-6-fluoro-1,3-dioxoisoindolin-4-yl)acetamide] | 123 | 165 | 79
17 | [2H]C([2H])([2H])Oc1ccc([C@H](CS(C)(=O)=O)N2C(=O)c3cc(F)cc(NC(C)=O)c3C2=O)cc1OC([2H])([2H])[2H] [Compound 206, (R)—N-(2-(1-(3,4-d6-dimethoxyphenyl)-2-(methylsulfonyl)ethyl)-6-fluoro-1,3-dioxoisoindolin-4-yl)acetamide] | 1460 | 1350 | 997
18 | [2H]C([2H])([2H])Oc1ccc([C@@H](CS(C)(=O)=O)N2C(=O)c3cc(F)cc(NC(C)=O)c3C2=O)cc1OC([2H])([2H])C([2H])([2H])[2H] [Compound 207, (S)—N-(2-(1-(3-d5-ethoxy-4-d3-methoxyphenyl)-2-(methylsulfonyl)ethyl)-6-fluoro-1,3-dioxoisoindolin-4-yl)acetamide] | 20 | 20 | 12
19 | CCOc1cc(C(CS(C)(=O)=O)N2C(=O)c3ccc(F)c(NC(C)=O)c3C2=O)ccc1OC (stereo not drawn) [Compound 301, N-(2-(1-(3-ethoxy-4-methoxyphenyl)-2-(methylsulfonyl)ethyl)-5-fluoro-1,3-dioxoisoindolin-4-yl)acetamide] | 102 | 116 | 65
20 | CCOc1cc([C@@H](CS(C)(=O)=O)N2C(=O)c3ccc(F)c(NC(C)=O)c3C2=O)ccc1OC [Compound 302, (S)—N-(2-(1-(3-ethoxy-4-methoxyphenyl)-2-(methylsulfonyl)ethyl)-5-fluoro-1,3-dioxoisoindolin-4-yl)acetamide] | 33 | 41 | 22
21 | CCOc1cc(C(CS(C)(=O)=O)N2C(=O)c3ccnc(NC(C)=O)c3C2=O)ccc1OC (stereo not drawn) [Compound 401, N-(2-(1-(3-ethoxy-4-methoxyphenyl)-2-(methylsulfonyl)ethyl)-1,3-dioxo-2,3-dihydro-1H-pyrrolo[3,4-c]pyridin-4-yl)acetamide] | 182 | 211 | 110
22 | CCOc1cc([C@@H](CS(C)(=O)=O)N2C(=O)c3cncc(NC(C)=O)c3C2=O)ccc1OC [Compound 502, (S)—N-(2-(1-(3-ethoxy-4-methoxyphenyl)-2-(methylsulfonyl)ethyl)-1,3-dioxo-2,3-dihydro-1H-pyrrolo[3,4-c]pyridin-7-yl)acetamide] | 206 | 513 | 107
23 | CCOc1cc(C(CS(C)(=O)=O)N2C(=O)c3nccc(NC(C)=O)c3C2=O)ccc1OC (stereo not drawn) [Compound 601, N-(6-(1-(3-ethoxy-4-methoxyphenyl)-2-(methylsulfonyl)ethyl)-5,7-dioxo-6,7-dihydro-5H-pyrrolo[3,4-b]pyridin-4-yl)acetamide] | 273 | 390 | 201
24 | CCOc1nc(C(CS(C)(=O)=O)N2C(=O)c3cccc(NC(C)=O)c3C2=O)ccc1OC (stereo not drawn) [Compound 701, N-(2-(1-(6-ethoxy-5-methoxypyridin-2-yl)-2-(methylsulfonyl)ethyl)-1,3-dioxoisoindolin-4-yl)acetamide] | 2.5 | 3.5 | 2.1

From patent US11337964B2, “Isoindoline derivative, pharmaceutical composition and use thereof” (Kangpu Biopharmaceuticals, Ltd., priority 2017, dated 2022)
